# Laboratory results: patent US4695573A (Hoechst-Roussel Pharmaceuticals Inc., priority 1985, dated 1987)
# Where a name gives a salt, the structure may show the parent alone. Read-outs that look alike come from different tables or passages of the source.
# How the values were obtained:
# [1] = system: cholinergically deficient memory; assay: Dark Avoidance Assay (block of scopolamine-induced memory impairment); format: in vivo, mice; settings: Mus musculus, read-out: % of Animals Greater than Scopolamine; for responders at 2.5 mg/kg: dose 2.5 mg/kg of body weight; for responders at 1.25 mg/kg: dose 1.25 mg/kg of body weight; for responders at 5 mg/kg: dose 5.0 mg/kg of body weight; for responders at 0.16 mg/kg: dose 0.16 mg/kg of body weight
# Experimental: In this assay mice are tested for their ability to remember an unpleasant stimulus for a period of 24 hours. A mouse is placed in a chamber that contains a dark compartment; a strong incandescent light drives it to the dark compartment, where an electric shock is administered through metal plates on the floor. The animal is removed from the testing apparatus and tested again, 24 hours later, for the ability to remember the electric shock.
# If scolopamine, an anticholinergic that is known to cause memory impairment, is administered before an animal's initial exposure to the test chamber, the animal re-enters the dark compartment shortly after being placed in the test chamber 24 hours later.
# acetylcholinesterase = acetylcholinesterase (Homo sapiens, UniProt P22303); assay: Cholinesterase Inhibition Assay (photometric method of Ellman et al.); format: biochemical
# [2] = photometric method of Ellman, read-out: Cholinesterase Inhibition IC50
# [3] = mice, dose 0.63 mg/kg of body weight, retest after 24 hours
# acetylcholinesterase, sequence (P22303 32-614): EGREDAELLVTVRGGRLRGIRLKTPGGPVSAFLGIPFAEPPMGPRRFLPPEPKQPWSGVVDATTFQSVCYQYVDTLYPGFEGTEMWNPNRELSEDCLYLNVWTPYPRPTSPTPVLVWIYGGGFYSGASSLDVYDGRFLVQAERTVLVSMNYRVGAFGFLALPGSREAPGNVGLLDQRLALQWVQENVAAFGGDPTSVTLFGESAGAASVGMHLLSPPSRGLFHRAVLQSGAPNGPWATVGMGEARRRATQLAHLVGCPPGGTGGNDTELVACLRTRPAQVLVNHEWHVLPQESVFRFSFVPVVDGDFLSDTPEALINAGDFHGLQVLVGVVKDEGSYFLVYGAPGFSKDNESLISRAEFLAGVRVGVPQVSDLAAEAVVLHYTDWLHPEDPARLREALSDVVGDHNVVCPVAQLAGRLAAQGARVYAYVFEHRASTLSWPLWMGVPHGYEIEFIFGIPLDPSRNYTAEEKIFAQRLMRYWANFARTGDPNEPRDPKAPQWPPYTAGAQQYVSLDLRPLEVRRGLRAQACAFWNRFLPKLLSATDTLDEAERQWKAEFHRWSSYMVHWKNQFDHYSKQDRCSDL
smiles,measurement,setting,value
"OC1CCCc2nc3ccccc3c(NCc3ccccc3F)c21 (stereo not shown) [9-(2-Fluorobenzylamino)-1,2,3,4-tetrahydroacridin-1-ol maleate]",responders at 2.5 mg/kg,"[1]; mice, retest after 24 hours",27%
same,IC50,acetylcholinesterase,210 µM
"OC1CCCc2nc3ccccc3c(NCCc3ccccc3)c21 (stereo not shown) [9-Phenethylamino-1,2,3,4-tetrahydroacridin-1-ol]",IC50,acetylcholinesterase; [2],240 µM
"Nc1c2c(nc3ccccc13)CCCC2O (stereo not shown) [9-Amino-1,2,3,4-tetrahydroacridin-1-ol]",responders at 0.63 mg/kg,[1]; [3],33%
"Nc1c2c(nc3ccccc13)CCC=C2 [9-Amino-3,4-dihydroacridine]",responders at 2.5 mg/kg,"[1]; mice, retest after 24 hours",20%
same,IC50,acetylcholinesterase,6.5 µM
"OC1CCCc2nc3ccccc3c(NCc3ccccc3)c21 (stereo not shown) [9-Benzylamino-1,2,3,4-tetrahydroacridin-1-ol]",responders at 1.25 mg/kg,"[1]; mice, retest after 24 hours",27%
"OC1CCCc2nc3ccccc3c(NCc3ccccc3Cl)c21 (stereo not shown) [9-(2-Chlorobenzylamino)-1,2,3,4-tetrahydroacridin-1-ol]",responders at 0.31 mg/kg,"[1]; mice, dose 0.31 mg/kg of body weight, retest after 24 hours",27%
same,IC50,acetylcholinesterase,130 µM
"OC1CCCc2nc3ccccc3c(NCc3c(F)c(F)c(F)c(F)c3F)c21 (stereo not shown) [9-[(2,3,4,5,6-Pentafluorobenzyl)amino]-1,2,3,4-tetrahydroacridin-1-ol, fumarate]",responders at 5 mg/kg,"[1]; mice, retest after 24 hours",20%
same,IC50,acetylcholinesterase,350 µM
"CC[C@@H]1C(=O)OC[C@@H]1Cc1cncn1C [Pilocarpine, reference compound]",responders at 5 mg/kg,"[1]; mice, retest after 24 hours",13%
"OC1CCCc2nc3ccccc3c(NCc3ccc(C(F)(F)F)cc3)c21 (stereo not shown) [1,2,3,4-Tetrahydro-9-(4-trifluoromethylbenzylamino)acridin-1-ol]",responders at 0.16 mg/kg,"[1]; mice, retest after 24 hours",22%
same,IC50,acetylcholinesterase,550 µM
"Nc1c2c(nc3cc(C(F)(F)F)ccc13)CCCC2O (stereo not shown) [9-Amino-1,2,3,4-tetrahydro-6-trifluoromethylacridin-1-ol]",responders at 0.63 mg/kg,[1]; [3],71%
"OC1CCCc2nc3ccccc3c(NCc3ccccc3C(F)(F)F)c21 (stereo not shown) [1,2,3,4-Tetrahydro-9-(2-trifluoromethylbenzylamino)acridin-1-ol]",responders at 0.16 mg/kg,"[1]; mice, retest after 24 hours",38%
same,IC50,acetylcholinesterase,920 µM
"OC1CCCc2nc3ccccc3c(NCc3ccc(F)cc3)c21 (stereo not shown) [9-(4-fluorobenzylamino)-1,2,3,4-tetrahydroacridin-1-ol]",responders at 1.25 mg/kg,"[1]; mice, retest after 24 hours",33%
same,IC50,acetylcholinesterase,110 µM
"Nc1c2c(nc3ccccc13)CCCC2=O [9-Amino-3,4-dihydroacridin-1(2H)--one, 9-Amino-3,4-dihydroacridin-1(2H)-one]",IC50,acetylcholinesterase; [2],250 µM
"O=C1CCCc2nc3ccccc3c(NCCCC(c3ccccc3)c3ccccc3)c21 [3,4-Dihydro-9-(4,4-diphenylbutylamino)acridin-1(2H)-one]",responders at 0.63 mg/kg,[1]; [3],50%
same,IC50,acetylcholinesterase,13 µM
"O=C1CCCc2nc3cc(F)ccc3c(NCc3ccccc3)c21 [9-Benzylamino-3,4-dihydro-6-fluoroacridin-1(2H)-one, maleate]",responders at 5 mg/kg,"[1]; mice, retest after 24 hours",40%
"O=C1CCCc2nc3ccccc3c(NCCCC(c3cccc(F)c3)c3cccc(F)c3)c21 [3,4-Dihydro-9-[4,4-bis(3-fluorophenyl)butylamino]acridin-1(2H)-one]",responders at 5 mg/kg,"[1]; mice, retest after 24 hours",40%
same,IC50,acetylcholinesterase,1.9 µM
"Nc1c2c(nc3ccccc13)CCCC2 [Tacrine, 9-Amino-1,2,3,4-tetrahydroacridine, reference compound]",responders at 0.63 mg/kg,[1]; 24 h,13%
"COc1ccccc1CNc1c2c(nc3ccccc13)CCCC2O (stereo not shown) [9-(2-Methoxybenzylamino)-1,2,3,4-tetrahydroacridin-1-ol]",responders at 0.21 mg/kg,"[1]; mice, dose 0.21 mg/kg of body weight, retest after 24 hours",33%
same,IC50,acetylcholinesterase,150 µM
